Experimental data reported in patent publication US9187784B2, “EphA4 is a disease modifier in motor neuron disease” (VIB VZW, priority 2011, dated 2015).
Marks after values point to notes of the source that are not given here.

What was measured:
[1] = system: mutant SOD1-overexpressing fish; assay: mutant SOD1-induced motor axonopathy in zebrafish embryos (percentage affected embryos, motor axon length); assay type: in vivo
Description: FIG. 1: EphA4 knockdown rescues mutant SOD1-induced motor axonopathy. […] Abnormal branching is indicated with arrowhead. Y-axes show motor axon length of zebrafish embryos expressing wild-type SOD1 (black bar, Panels D-G) or mutant SOD1 (white bar, Panels D-G). Knockdown of RTK2 in SOD1A4V- (Panel D), SOD1G93A- (Panel E) and SOD1G37R- (Panel F) expressing fish was established by co-injection of increasing amounts of atg-RTK2 morpholino (shaded bars). RTK1 expression was inhibited in SOD1A4V-expressing fish by co-injection of atg-RTK1 morpholino (shaded bars, Panel G). Ctr-RTK2 and ctr-RTK1 were used as control. ANOVA and Bonferroni's multiple comparison tests were used for statistical analysis. Comparing axonal length in SOD1A4V fish injected with ctr-RTK2 (n=39) vs. different doses atg-RTK2: 3 ng (n=43, p=0.0059), 4.5 ng (n=37, p=0.0016, Panel D), SOD1G93A: ctr-RTK2 (n=60) vs. atg-RTK2: 1.5 ng (n=55, p=0.015), 3 ng (n=51, p=2.82×10-9), 4.5 ng (n=46, p=2.22×10-15, Panel E), SOD1G37R: ctr-RTK2 (n=37) vs. atg-RTK2: 3 ng (n=25, p=0.027), 4.5 ng (n=36, p=0.0018, Panel F) and SOD1A4V: ctr-RTK1 (n=49) vs. atg-RTK1: 1.5 ng (n=51, p=2.51×10-7), 3 ng (n=64, p=7.99×10-10), 4.5 ng (n=54, p<1×10-20, Panel G). Western blot of SOD1WT or SOD1A4V (1.76 ng) expressing zebrafish embryos (30 hpf), co-injected with either ctr-RTK1 or atg-RTK1 (4.5 ng). Sixty embryos were used per group with actin as the loading control (H). Immunostaining of rtk1 (green) in rhombomeres 3 and 5 and of ephrin-b2 (magenta) in rhombomere 4 in zebrafish embryos injected with either ctr-RTK1 or atg-RTK1 (4.5 ng). RTK1-depleted embryos show disorganized rhombomere boundaries (arrowhead, I, Scale bar 50 μm). Error bars are s.e.m.
FIG. 2: RTK2 knockdown protects motor axons against SOD1^A4V-induced injury. Effect of RTK2 knockdown, established by injection of splice-rtk2 morpholino, on the motor axon length of SOD1^A4V-expressing zebrafish embryos (30 hpf). SOD1^WT-expressing fish and a non-functional five-base pair-mismatch control morpholino (ctr-RTK2) were used as control (Panel A). ANOVA and Bonferroni's multiple comparison tests were used for statistical analysis: SOD1^A4V/ctr-RTK2 (n=56) vs. SOD1^A4V/spl-RTK2 (n=60, 1.79×10^−4). Spl-RTK2 was designed against the exon 2 splice site of the zebrafish RTK2 pre-mRNA and alternatively skipped out exon 2. RT-PCR on non-transgenic fish (lane 1), ctr-RTK2-injected fish (lane 2) and spl-RTK2-injected fish (lane 3) at 30 hpf. Functional RTK2 mRNA, containing exon 2, is indicated by the 818-bp product (upper band) while non-functional RTK2 mRNA, lacking exon 2 is indicated by the 156-bp product (lower band), 60 embryos each group (Panel B). Error bars are s.e.m.
FIG. 12: Pharmacological inhibition of EphA4 receptor signaling protects against mutant SOD1 pathology in vivo. Effect of treatment with Compound 1 (C1, 500 μM) on the motor axon length of zebrafish embryos (30 hpf). DMSO (1/250 dilution) was used as control (Panel A). ANOVA and Bonferroni's multiple comparison tests were used for statistical analysis: SOD1^A4V/C1 (n=68) vs. SOD1^A4V/DMSO (n=76, p=3.54×10^−5). Effect of KYL-peptide (3 mM) treatment of 60-day-old SOD1^G93A rats on disease onset (Panel B) and survival (Panel C). Artificial CSF (ACSF) was used as control. Average disease onset: 133 days (treated, n=21) versus 125 days (control, n=17, T-test p=0.044). Average survival: 148 days (treated, n=21) versus 139 days (controls, n=17, T-test p=0.041). Error bars are s.e.m.
Effect of RTK2 knockdown (established by injection of atg-RTK2 morpholino) on the percentage of affected wild-type SOD1 or mutant SOD1 (A4V, G93A, G37R) zebrafish embryos (30 hpf). Ctr-RTK2 morpholino was used as control. An embryo was considered as affected when it had more than 10% abnormally branched motor axons. Significance of mtSOD1/ctr-RTK2 (4.5 ng) vs. mtSOD1/atg-RTK2 (4.5 ng) was determined by Mann-Whitney test, * p=0.0075, ° p=0.039 and # p=0.0052. […]

[2] = system: RTK1; assay: RTK1 expression by Western blot and whole-mount immunostaining of zebrafish embryos; assay type: in vivo; conditions: Western blot of zebrafish embryos and whole-mount immunostaining of rhombomeres, 4.5 ng
Description: FIG. 1: EphA4 knockdown rescues mutant SOD1-induced motor axonopathy. […] Abnormal branching is indicated with arrowhead. Y-axes show motor axon length of zebrafish embryos expressing wild-type SOD1 (black bar, Panels D-G) or mutant SOD1 (white bar, Panels D-G). Knockdown of RTK2 in SOD1A4V- (Panel D), SOD1G93A- (Panel E) and SOD1G37R- (Panel F) expressing fish was established by co-injection of increasing amounts of atg-RTK2 morpholino (shaded bars). RTK1 expression was inhibited in SOD1A4V-expressing fish by co-injection of atg-RTK1 morpholino (shaded bars, Panel G). Ctr-RTK2 and ctr-RTK1 were used as control. ANOVA and Bonferroni's multiple comparison tests were used for statistical analysis. […]
Mice spinal cord and 30 hpf old, dechorionated and deyolked zebrafish embryos, and NSC-43 cells were homogenized in buffer: 50 mM Triz/HCl, pH 7.5, 120 mM NaCl, 1% TRITON® X-100, 1 mM sodium orthovanadaat, 2 mM PMSF, complete protease inhibitor (Roche). Protein concentration was determined using the micro-BCA protein assay reaction kit 207 (Pierce). […]

Molecule | % affected fish ([1]; Table 4, SOD1A4V fish, morpholino 1.5 ng) | % affected fish ([1]; Table 4, SOD1A4V fish, morpholino 3 ng) | % affected fish ([1]; Table 4, SOD1A4V fish, morpholino 4.5 ng) | % affected fish ([1]; Table 4, SOD1WT fish, morpholino 4.5 ng) | RTK1 expression [2] | % affected fish ([1]; Table 4, SOD1A4V fish, C1 500 μM in the water) | % affected fish ([1]; Table 4, SOD1WT fish, C1 500 μM in the water)
5′-CTGTGAACACAAGCGCAGCCATTGG-′3 (all phosphorodiamidate morpholino (PMO)) [atg-RTK1] | 38 (24) % | 22 (33) % | 8* (26) % | 14 (14) % | efficiently blocked RTK1 expression |  | 
Cc1ccc(C)n1-c1ccc(C(=O)O)c(O)c1 [Compound C1] |  |  |  |  |  | 11° (26) % | 15 (32) %
